In US5672597A, “Acetamide derivative” (Kaken Pharmaceutical Co., Ltd., priority 1992, dated 1997):

Tests used:
[1] = tested on: ulcer induced by pylorus-ligation; assay: Test of ulcer induced by pylorus-ligation; assay type: in vivo, wistar male rat; details: 14 h; rat, 100 mg/kg, in the duodenum immediately after ligating the pylorus; hydrochloride salts; read-out: Percentage of inhibition of ulcer formation
Description: (§1) With respect to anti-ulcer effect of the compounds having the general formula (I), there were carried out a test of ulcer induced by pylorus-ligation, which ulcer is induced mainly due to offensive factors; a test of ulcer induced by hydrochloric acid/ethanol, which ulcer is induced mainly due to defensive factors such as mucosal blood flow and mucus; and a test of ulcer induced by a stress of restraint plus water-immersion, which ulcer is induced due to both of offensive and defensive factors. Further, there were carried out a test of ulcer induced by acetic acid as a chronic ulcer model and a test of cure-prolonged ulcer induced by acetic acid. Also, there was examined an activity of increasing gastric mucosal blood flow, which activity brings about acceleration of regeneration of the gastric mucosa. As test compounds, hydrochloride salts were used.
The pylorus of a wistar male rat weighing 230 to 250 g, which had fasted for 48 hours, was ligated under ether-anesthesia, according to a usual method. After 14 hours, the animal was sacrificed by ether and the stomach was taken out therefrom.
The area of the ulcer generated on the fore-stomach was measured and the total area of the ulcer per rat was classified into the following six grades to give ulcer coefficients (Table 4).
Each of them was suspended in 0.5% methylcellulose solution and administered in the duodenum immediately after ligating the pylorus, in a dose of 100 mg/kg (body weight), respectively. To control group, only the medium for the medicament solution was administered in an amount of 0.25 ml/100 g (body weight).
The obtained results were subjected to the following formula to calculate a percentage of inhibition of ulcer formation. Six rats were used in each group for the test: [formula]

[2] = tested on: ulcer induced by hydrochloric acid/ethanol; assay: Test of ulcer induced by hydrochloric acid/ethanol; assay type: in vivo, wistar male rat; details: 1 h; rat, 30 mg/kg oral, 30 minutes before hydrochloric acid/ethanol; hydrochloride salts; read-out: Percentage of inhibition of ulcer formation
Description: as §1
To a wistar male rat weighing 220 to 240 g, which had fasted and thirsted for 24 hours, was orally administered 150 mM hydrochloric acid/70% ethanol solution in an amount of 5 ml/kg (body weight). After 1 hour, the animal was sacrificed by dislocating the cervical vertebrae and the stomach was taken out therefrom. The length of the ulcer generated on the glandular stomach was measured and the total thereof was regarded as the ulcer coefficient (mm).
To control group, only the medium for the medicament solution was orally administered in an amount of […] (body weight), 30 minutes before the administration of hydrochloric acid/ethanol.
(§2) The obtained results were subjected to the same formula as in the test of ulcer induced by pylorus-ligation, to calculate a percentage of inhibition of ulcer formation. Six rats were used in each group for the test.

[3] = tested on: ulcer induced by a stress of restraint plus water-immersion; assay: Test of ulcer induced by a stress of restraint plus water-immersion; assay type: in vivo, ddY male mouse; details: 7 h; mouse, 30 mg/kg oral, 15 minutes before the load of the stress; hydrochloride salts; read-out: Percentage of inhibition of ulcer formation
Description: as §1
A ddY male mouse weighing 20 to 25 g, which had fasted for 18 hours, was put into a stress cage, and was loaded with a stress by immersing it in a water tank at 23° C., to a level of a xiphoid. After 7 hours, the animal was sacrificed by dislocating the cervical vertebrae and the stomach was taken out therefrom. The length of the ulcer generated on the glandular stomach was measured and the total thereof was regarded as the ulcer coefficient (mm).
To control group, only the medium for the medicament solution was orally administered in an amount of 0.1 ml/10 g (body weight) 15 minutes before the load of the stress.
as §2

[4] = tested on: ulcer induced by acetic acid; assay: Test of ulcer induced by acetic acid; assay type: in vivo, wistar male rat; details: rat, 15 mg/kg oral, twice a day from 2 days after generation of the ulcer
Description: as §1
Into the junction of the glandular stomach and the antrum, of a wistar male rat weighing 220 to 240 g, was injected subserosally […] of 20% acetic acid to generate an ulcer induced by acetic acid. […] Each of them was suspended in 0.5% methylcellulose solution, and administered orally in a dose of 15 mg/kg, twice a day (in the morning and in the evening) from 2 days after the generation of the ulcer for days, respectively. The animal was sacrificed by ether on the day after the last administration, and the stomach was taken out therefrom. The area of the ulcer was measured.
The obtained results were subjected to the following formula to calculate a percentage of improvement for curing ulcer. To control group, only the medium for the medicament solution was administered in an amount of 0.5 ml/100 g (body weight). Twenty rats were used in each group for the test. [formula]

[5] = tested on: cure-prolonged ulcer induced by acetic acid; assay: Test of cure-prolonged ulcer induced by acetic acid; assay type: in vivo, wistar male rat; details: rat, 50 mg/kg oral, twice a day; cure prolonged with indomethacin 1 mg/kg s.c. for 13 days
Description: as §1
Into the junction of the glandular stomach and the antrum, of a wistar male rat weighing 220 to 240 g, was injected subserosally 30 μl of 20% acetic acid to generate an ulcer induced by acetic acid. From 2 days after the generation of the ulcer, indomethacin was injected subcutaneously in the regions of back of the rat in a dose of 1 mg/kg, once a day for 13 days to prolong the cure of the ulcer induced by acetic acid.
Each of them was suspended in 0.5% methylcellulose solution, and administered orally in a dose of 50 mg/kg, twice a day (in the morning and in the evening) from 13 days, respectively. The animal was sacrificed by ether on the day after the last administration, and the stomach was taken out therefrom. The area of the ulcer was measured. The obtained results were subjected to the following formula to calculate a percentage of improvement for curing ulcer. To control group, only the medium for the medicament solution was administered in an amount of 0.5 ml/100 g (body weight). Twenty rats were used in each group for the test. [formula]

[6] = tested on: gastric mucosal blood flow; assay: Activity of increasing gastric mucosal blood flow; assay type: in vivo, wistar male rat; details: rat, urethane-anesthesia, 220 μg/kg intravenous, 60 minutes after administration
Description: as §1
An amount of the mucosal blood flow in the body of the stomach of a wistar male rat weighing 220 to 240 g under urethane-anesthesia was measured by means of a laser doppler blood flow meter. As test compounds, there were used the compound of the present invention and, as comparative compound, FRG-8813. Each of them was intravenously administered in a dose of 220 μg/kg. A percentage of increase of the blood flow was calculated 60 minutes after the administration. Five rats were used for each group for the test.

| Compound | inhibition in vivo at 100 mg/kg [1] | inhibition in vivo at 30 mg/kg [2] | inhibition in vivo at 30 mg/kg [3] | Percentage of improvement for curing ulcer [4] | Percentage of improvement for curing ulcer [5] | Percentage of increase of blood flow [6] |
| --- | --- | --- | --- | --- | --- | --- |
| CCOC(=O)NCC[S+]([O-])CC(=O)NC/C=C\COc1cccc(CN2CCCCC2)c1 (stereo not drawn) [Example 75, N-[4-[3-(piperidinomethyl)phenoxy]-cis-2-butenyl]-2-[2-(ethoxycarbonylamino)ethylsulfinyl]acetamide] | 96% | 82% | 87% | 24% | 49% | 15% |
| O=C(C[S+]([O-])Cc1ccco1)NC/C=C\COc1cc(CN2CCCCC2)ccn1 (stereo not drawn) [FRG-8813, reference compound] | 27% | 70% | 85% | 12% | -5% | 3% |
